1 substance from paper PMC5238392, “Origin of anti-tumor activity of the cysteine-containing GO peptides and further optimization of their cytotoxic properties” (Scientific Reports, 2017) can be followed below.

The subject of assay [1] is human lung carcinoma cell line A549. The experiment in a line: MTS cell viability assay, A549. It counts as cell-based. The method, then: All experiments were conducted in duplicate or triplicate.
Background: Tetrazolium assays rely on reduction of a dye to a coloured formazan, in cell work by metabolically active cells.

Assay [2] deals with HT-1080 cells. The experiment in a line: Rhodamine 123 mitochondrial membrane potential, HT-1080. In kind it is cell-based, human. The source says:
(§1) In broad terms, apoptosis is classified into two fundamental modes: mitochondrial pathway and death receptor pathway. In the former mechanism, apoptotic signals lead to a loss of mitochondrial membrane potential, termination of mitochondrial ATP synthesis, overproduction of reactive oxygen species (ROS) and their release into cytosol along with a number of pro-apoptotic proteins that are normally confined to the intermembrane space of the mitochondria. To determine whether this mechanism is relevant for GO-203-induced cell death, we have analyzed the time variation of mitochondrial membrane potential and cellular level of ROS over the time interval of 2 h following the addition of the peptide. Toward this goal, the cells were preloaded with Rhodamine 123 or carboxy-H2DCFDA fluorescent dyes, then washed, suspended in the growth medium, and treated with GO-203. The fluorescence was measured concurrently with the side angle light scatter.
Only at 90–100 min we observe a moderate decrease of the fluorescence signal from the treated cells, which indicates the drop in mitochondrial membrane potential. As discussed above, the onset of apoptosis in HT-1080 occurs considerably earlier than that. […] Therefore we assume that mitochondrial membrane permeabilization (MMP) occurs relatively late in the game and is unlikely to be a key element of the GO-203-induced apoptosis.
(§2) Finally, the same experimental scheme as described above for H2DCFDA/DCFDA measurements was also used with Rhodamine 123. […] The same observation has been made for ZR-75-1.
(§3) The cells were seeded into 35-mm Nunc culture dishes (Thermo Scientific, USA) at 1.2 × 10^5 cells per dish and allowed to attach for 24 h. […] After that GO-203 was added directly to the suspension and cell fluorescence was measured by flow cytometry at multiple time points during the following 2 hours. […] Cell fluorescence was then immediately measured by flow cytometry. […]

The next assay has as its system ZR-75-1. The experiment in a line: Rhodamine 123 mitochondrial membrane potential, ZR-75-1. It counts as cell-based, human. The settings on record: 30 min after application, same scheme as H2DCFDA/DCFDA measurements. Here is the method: as §2
The cells were seeded into 35-mm Nunc culture dishes (Thermo Scientific, USA) at 1.2 × 10^5 cells per dish and allowed to attach for 24 h. To monitor intracellular ROS in a time-dependent manner, the cells were incubated for 30 min with 10 μM of carboxy-H2DCFDA (Invitrogen, USA), then harvested with trypsin-EDTA and suspended in a fresh medium. After that GO-203 was added directly to the suspension and cell fluorescence was measured by flow cytometry at multiple time points during the following 2 hours. The same procedure was used for mitochondria-specific fluorescent dye Rhodamine 123 (Thermo Fisher Scientific, USA), which was added to a concentration of 5 μM. The complementary side scatter measurements were conducted using 488 nm laser light. In another series of experiments, we have used the related indicator of oxidative stress, H2DCFDA (Invitrogen, USA). The experiment started by adding GO-203 to the cell growth medium; then 10 min later 5 μM of H2DCFDA has been added. After 20 min incubations with H2DCFDA, the cells were harvested with trypsin-EDTA and suspended in a fresh medium. Cell fluorescence was then immediately measured by flow cytometry. […]

Assay [3] has as its system HT-1080 cells. The assay can be described thus: carboxy-H2DCFDA time-dependent intracellular ROS, HT-1080. To be noted: suspended HT-1080; 5 μM. It counts as cell-based, human.
Text: as §1, with “Toward this goal, the cells were preloaded with Rhodamine 123 or carboxy-H2DCFDA fluorescent dyes, then washed, suspended in the growth medium, and treated with GO-203.” left out
To confirm this finding we have also used the carboxy-H2DCFDA probe of the general oxidative stress. […] The results of the ROS assay in HT-1080, where the intensity of fluorescence signal reflects the level of intracellular oxidants, are shown in Fig. 6B. […]
as §3

The test system of assay [4] is HT-1080 cells. The experiment in a line: Cell cycle phase distribution, HT-1080. The settings on record: 24 h incubation with 5 μM. In kind it is cell-based, human. The method, then: The onset and the progression of the apoptosis are relatively fast, on the time scale of 1 h. […] Indeed, the cell cycle phase distribution remains unaffected by addition of the peptide. For example, in the untreated (control) HT-1080 sample the distribution between G0/G1, S, and G2/M phases is 52%, 23% and 26%, respectively. After 24 h incubation with 5 μM GO-203 this proportion is essentially unchanged at 50%, 24%, and 27%.
The adherent cells were rinsed with PBS, harvested using trypsin-EDTA solution and suspended in the growth medium. To analyze cell cycle phase distribution, 200 μg/ml of saponin (Fluka, USA), 250 μg/ml RNase A, and 50 μg/ml of propidium iodide (both Sigma-Aldrich, USA) were added to each sample tube, thus obtaining DNA stain buffer. After 1 h incubation at room temperature, the samples were analyzed by flow cytometry. To detect apoptosis by flow cytometry, CellEvent Caspase-3/7 Green Flow Cytometry Assay Kit (Thermo Fisher Scientific, USA) and Annexin-V FITC conjugate (BD Biosciences, USA) in combination with propidium iodide have been employed following the manufacturer’s protocols.
Figure S2. Cell cycle distribution for (A) HT-1080 cells treated with one-time dose of 5 μM GO-203 and (B) ZR-75-1 cells treated with one-time dose of 10 μM GO-203. The peptide concentrations have been chosen such as to induce significant cytotoxic effect without causing massive cell death. The data were taken 24 h after the application of the peptide.
Figure S3. H2DCFDA/DCFDA experiment to assess the level of ROS in (A) HT-1080 cells after 30 min incubation with 5 μM GO-203 and (B) ZR-75-1 cells after 30 min incubation with 10 μM GO-203. A statistically significant difference in the intensity of DCF fluorescence response is marked by an asterisk. […]

Where [5] appears, read: suspended HT-1080, one-time 5 μM dose.

On to “[R]9CQCRRKN [GO-203, in clinical trials]”, for which the “Cell viability (MTS)” value in assay [1] (1 × 5: single dose of 5 μM, 96 h) was “essentially inconsequential”; in assay [1] (1 × 20: single dose of 20 μM, 96 h), “substantially cytotoxic”; in assay [1] (4/5: four daily doses of 5 μM with exchanged growth medium, 96 h), “inefficient”; in assay [1] (4 × 5: four daily doses of 5 μM without exchanging growth medium, OD 492 nm 96 h after first application), “considerable damage”. For the same substance, the “Mitochondrial membrane potential (Rhodamine 123)” value is reported as “fully maintained” with HT-1080 cells [2] (HT-1080, 30 min after application, same scheme as H2DCFDA/DCFDA measurements) and “fully maintained” with ZR-75-1. Moreover, in the assay on HT-1080 cells [2] (setting [5]), the “Time for which mitochondrial retention of Rhodamine 123 remains the same as control” value was “at least 70 min”. Further, the “Time of moderate decrease of Rhodamine 123 fluorescence (drop in mitochondrial membrane potential)” value with HT-1080 cells [2] (setting [5]) lay within 90 to 100 min. Further, in the assay on HT-1080 cells [3], the “Time at which carboxy-H2DCFDA fluorescence (ROS) begins to diverge from control” value lay in the range of 80 to 90 min. In addition, in the assay with HT-1080 cells [3], the “Time at which elevated level of ROS is evident” value is 120 min. The “cells in S phase” value in the assay with HT-1080 cells [4] (control 23%) was found to be 24%. Also, in the assay with HT-1080 cells [4] (control 26%), the “cells in G2/M phase” value was found to be 27%. In the assay on HT-1080 cells [4] (control 52%), the “cells in G0/G1 phase” value came to 50%.
